Measured values as given in US10994015B2, “EGFR proteolysis targeting chimeric molecules and associated methods of use” (Arvinas Operations, Inc., priority 2016, dated 2021).

Legend:
HER3 = HER3 (Homo sapiens (Human), UniProt P21860); assay: TR-FRET assay for ERBB kinases; assay type: biochemical; details: geometric mean if measured more than once
EGFR Exon20NPG = EGFR Exon20NPG (Homo sapiens (Human), UniProt P00533, INS770NPG); assay: TR-FRET assay for ERBB kinases; assay type: biochemical; details: geometric mean if measured more than once
Outline: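 Compounds pre-incubated 10 min with kinase in HEPES pH 7.5 buffer (MgCl2, DTT, Pluronic), then reaction started with substrate mix (3 mM ATP, 30 µM fluorescein-poly-GluTyr, stock levels) for 10 min at room temperature. EDTA-quenched, detected by Tb-pY20 antibody TR-FRET (520/490 nm emission).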

[1] = biological target: EGFR L858R/T790M/C797S triple mutant (H520*) (Homo sapiens (Human), UniProt P00533, C797S/L858R/T790M); assay: EGFR protein degradation assay (Western blot); assay type: cell-based; details: 72 hours, 300 nM to 10 nM
Outline: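 EGFR loss in the triple-mutant line measured by immunoblot: clarified lysates normalised by BCA, run on 4-12% Bis-Tris gels, blotted to PVDF, probed with HRP anti-rabbit secondary. Before lysis, cells were dosed from 1, 0.3, 0.1, 0.03 and 0.01 mM DMSO stocks (not final concentrations) after overnight culture at 37° C.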

[2] = biological target: EGFR L858R/T790M double mutant (H1975) (Homo sapiens (Human), UniProt P00533, L858R/T790M); assay: EGFR protein degradation assay (Western blot); assay type: cell-based; details: 72 hours, 300 nM to 10 nM
Outline: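 Cells carrying the relevant EGFR form were plated at 300,000 cells per well in 6-well plates and left to attach overnight. After washing in ice-cold PBS, cells were lysed in 400 μl lysis buffer with protease inhibitors, scraped, and clarified at 10 000 rpm for 10 minutes. EGFR levels were then assessed by Western blot with tubulin as loading control.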

EGFR WT = EGFR WT (Homo sapiens (Human), UniProt P00533); assay: TR-FRET assay for ERBB kinases; assay type: biochemical; details: geometric mean if measured more than once
Outline: (§1)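 Compounds, serially diluted 3-fold in DMSO, were pre-incubated 10 min with kinase in HEPES pH 7.5 buffer with MgCl2 and DTT. Reactions were started with a substrate mix holding 3 mM ATP and 30 uM fluorescein-poly-GluTyr, run 10 min at room temperature, then quenched with Tb-pY20 antibody plus EDTA.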

EGFR L858R/T790M = EGFR L858R/T790M (Homo sapiens (Human), UniProt P00533, L858R/T790M); assay: TR-FRET assay for ERBB kinases; assay type: biochemical; details: geometric mean if measured more than once
Outline: as §1

EGFR L858R/T790M/C797S = EGFR L858R/T790M/C797S (Homo sapiens (Human), UniProt P00533, C797S/L858R/T790M); assay: TR-FRET assay for ERBB kinases; assay type: biochemical; details: geometric mean if measured more than once
Outline: as §1

HER3, sequence (P21860 20-1342, species assumed): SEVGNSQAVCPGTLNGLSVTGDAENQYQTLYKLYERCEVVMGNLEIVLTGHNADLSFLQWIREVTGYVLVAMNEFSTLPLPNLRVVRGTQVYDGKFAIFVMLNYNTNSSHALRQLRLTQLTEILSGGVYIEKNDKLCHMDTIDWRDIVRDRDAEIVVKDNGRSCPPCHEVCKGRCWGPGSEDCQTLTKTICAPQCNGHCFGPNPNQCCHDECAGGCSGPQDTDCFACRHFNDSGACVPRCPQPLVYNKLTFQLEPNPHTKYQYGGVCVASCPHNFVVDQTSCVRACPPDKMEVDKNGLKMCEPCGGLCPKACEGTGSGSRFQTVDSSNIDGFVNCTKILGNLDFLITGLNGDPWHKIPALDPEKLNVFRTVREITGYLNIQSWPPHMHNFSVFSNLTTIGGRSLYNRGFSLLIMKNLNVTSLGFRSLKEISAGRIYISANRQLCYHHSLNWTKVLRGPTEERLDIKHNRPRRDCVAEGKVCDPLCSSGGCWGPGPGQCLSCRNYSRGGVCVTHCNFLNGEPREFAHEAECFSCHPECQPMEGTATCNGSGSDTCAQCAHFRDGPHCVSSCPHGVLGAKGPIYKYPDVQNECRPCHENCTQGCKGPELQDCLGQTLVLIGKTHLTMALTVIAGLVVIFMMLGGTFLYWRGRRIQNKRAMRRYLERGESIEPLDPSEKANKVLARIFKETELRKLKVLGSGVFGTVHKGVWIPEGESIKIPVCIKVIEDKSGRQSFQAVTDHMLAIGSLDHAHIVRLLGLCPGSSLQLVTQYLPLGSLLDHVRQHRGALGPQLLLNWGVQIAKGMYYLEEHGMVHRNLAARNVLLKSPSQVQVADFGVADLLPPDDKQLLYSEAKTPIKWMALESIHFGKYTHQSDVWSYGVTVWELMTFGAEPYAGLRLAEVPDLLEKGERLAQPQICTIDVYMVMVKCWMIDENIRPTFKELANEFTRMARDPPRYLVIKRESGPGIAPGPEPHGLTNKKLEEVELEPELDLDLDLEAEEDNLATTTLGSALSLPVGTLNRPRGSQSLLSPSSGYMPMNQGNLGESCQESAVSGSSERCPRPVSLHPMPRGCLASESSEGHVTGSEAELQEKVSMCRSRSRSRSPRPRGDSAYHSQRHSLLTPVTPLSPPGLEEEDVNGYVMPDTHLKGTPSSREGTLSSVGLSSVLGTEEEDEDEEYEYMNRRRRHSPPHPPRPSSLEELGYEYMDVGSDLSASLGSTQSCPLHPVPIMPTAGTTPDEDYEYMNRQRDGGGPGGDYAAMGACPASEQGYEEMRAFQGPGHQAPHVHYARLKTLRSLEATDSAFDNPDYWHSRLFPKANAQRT
EGFR L858R/T790M/C797S, sequence (P00533 25-1210 T790M/C797S/L858R): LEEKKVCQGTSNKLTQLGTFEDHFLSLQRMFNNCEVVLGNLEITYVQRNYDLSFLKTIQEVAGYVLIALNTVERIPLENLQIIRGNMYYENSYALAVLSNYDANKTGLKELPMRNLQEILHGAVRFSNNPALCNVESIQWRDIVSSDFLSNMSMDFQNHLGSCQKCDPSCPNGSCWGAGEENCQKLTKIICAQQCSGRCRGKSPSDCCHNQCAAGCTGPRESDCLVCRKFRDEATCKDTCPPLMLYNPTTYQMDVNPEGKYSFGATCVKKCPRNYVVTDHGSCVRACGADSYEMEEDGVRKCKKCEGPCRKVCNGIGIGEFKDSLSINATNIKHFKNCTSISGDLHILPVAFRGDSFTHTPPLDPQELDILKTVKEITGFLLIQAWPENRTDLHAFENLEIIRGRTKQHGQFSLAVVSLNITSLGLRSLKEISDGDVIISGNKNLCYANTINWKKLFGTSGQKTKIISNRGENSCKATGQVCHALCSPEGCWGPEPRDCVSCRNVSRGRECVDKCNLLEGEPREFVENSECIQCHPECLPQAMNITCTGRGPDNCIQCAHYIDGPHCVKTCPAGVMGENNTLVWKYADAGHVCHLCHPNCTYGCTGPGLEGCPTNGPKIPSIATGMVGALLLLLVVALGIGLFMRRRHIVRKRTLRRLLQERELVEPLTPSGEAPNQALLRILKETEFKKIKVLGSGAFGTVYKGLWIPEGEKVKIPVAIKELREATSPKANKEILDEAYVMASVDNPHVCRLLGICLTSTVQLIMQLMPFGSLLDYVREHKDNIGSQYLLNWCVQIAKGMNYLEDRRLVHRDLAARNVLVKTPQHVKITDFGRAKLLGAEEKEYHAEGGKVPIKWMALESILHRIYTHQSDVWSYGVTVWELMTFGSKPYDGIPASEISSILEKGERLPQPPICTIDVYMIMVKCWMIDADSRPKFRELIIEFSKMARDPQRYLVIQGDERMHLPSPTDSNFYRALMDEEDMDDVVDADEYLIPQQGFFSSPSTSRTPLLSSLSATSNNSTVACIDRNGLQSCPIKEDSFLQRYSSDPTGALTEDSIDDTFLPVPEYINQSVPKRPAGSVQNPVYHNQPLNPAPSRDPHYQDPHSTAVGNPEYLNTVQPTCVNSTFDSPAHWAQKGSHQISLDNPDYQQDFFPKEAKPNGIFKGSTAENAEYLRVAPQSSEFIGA
EGFR Exon20NPG, sequence (P00533 other isoform, or with tags, fused parts or gaps del 1-694/ins NPG behind 770 limits assumed): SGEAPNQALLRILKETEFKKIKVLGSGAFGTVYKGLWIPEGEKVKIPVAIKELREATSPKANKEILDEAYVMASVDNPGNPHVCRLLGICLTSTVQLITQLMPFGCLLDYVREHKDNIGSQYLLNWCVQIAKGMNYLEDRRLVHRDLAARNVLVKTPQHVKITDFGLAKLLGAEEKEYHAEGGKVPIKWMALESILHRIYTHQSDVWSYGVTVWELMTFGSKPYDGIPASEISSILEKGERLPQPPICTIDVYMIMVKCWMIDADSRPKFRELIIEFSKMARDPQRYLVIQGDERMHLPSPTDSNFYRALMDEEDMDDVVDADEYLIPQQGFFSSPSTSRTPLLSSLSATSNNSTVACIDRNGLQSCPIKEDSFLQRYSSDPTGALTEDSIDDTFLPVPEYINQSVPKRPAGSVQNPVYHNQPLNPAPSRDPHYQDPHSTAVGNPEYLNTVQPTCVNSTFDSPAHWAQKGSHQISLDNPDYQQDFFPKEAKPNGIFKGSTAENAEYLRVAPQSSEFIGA
EGFR L858R/T790M, sequence (P00533 25-1210 T790M/L858R): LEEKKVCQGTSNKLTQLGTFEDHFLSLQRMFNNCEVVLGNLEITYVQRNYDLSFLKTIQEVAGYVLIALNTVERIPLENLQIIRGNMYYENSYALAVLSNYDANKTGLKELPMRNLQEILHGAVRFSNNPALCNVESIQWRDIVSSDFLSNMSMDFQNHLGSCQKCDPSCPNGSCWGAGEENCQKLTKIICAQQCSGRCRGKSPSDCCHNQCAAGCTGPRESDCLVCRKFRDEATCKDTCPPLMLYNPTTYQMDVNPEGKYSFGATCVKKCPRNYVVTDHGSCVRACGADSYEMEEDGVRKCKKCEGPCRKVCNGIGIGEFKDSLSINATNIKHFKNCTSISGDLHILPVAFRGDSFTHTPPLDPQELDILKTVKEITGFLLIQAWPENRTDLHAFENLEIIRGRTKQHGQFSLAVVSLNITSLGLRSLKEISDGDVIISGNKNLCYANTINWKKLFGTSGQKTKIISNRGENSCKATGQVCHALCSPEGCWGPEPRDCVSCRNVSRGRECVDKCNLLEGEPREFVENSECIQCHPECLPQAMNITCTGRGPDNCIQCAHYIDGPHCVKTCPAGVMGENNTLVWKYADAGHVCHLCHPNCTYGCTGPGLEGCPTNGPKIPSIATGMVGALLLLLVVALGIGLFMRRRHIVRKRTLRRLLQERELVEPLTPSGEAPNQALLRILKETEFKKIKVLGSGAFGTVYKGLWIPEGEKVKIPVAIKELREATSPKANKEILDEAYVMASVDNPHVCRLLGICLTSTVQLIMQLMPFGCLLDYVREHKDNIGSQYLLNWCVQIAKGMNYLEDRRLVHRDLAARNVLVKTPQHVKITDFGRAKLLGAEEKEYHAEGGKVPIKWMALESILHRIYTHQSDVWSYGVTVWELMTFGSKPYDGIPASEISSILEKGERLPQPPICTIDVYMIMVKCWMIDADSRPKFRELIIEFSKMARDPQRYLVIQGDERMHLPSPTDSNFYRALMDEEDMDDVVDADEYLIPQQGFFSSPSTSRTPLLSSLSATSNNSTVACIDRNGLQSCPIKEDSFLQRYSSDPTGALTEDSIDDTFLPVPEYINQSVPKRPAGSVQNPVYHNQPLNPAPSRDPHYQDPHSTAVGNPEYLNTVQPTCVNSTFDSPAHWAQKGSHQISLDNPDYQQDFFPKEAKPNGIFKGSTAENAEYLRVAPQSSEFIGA

Compound	IC50 (HER3) [µM]	IC50 (EGFR Exon20NPG) [µM]	EGFR protein remaining, EGFR L858R/T790M/C797S triple mutant [1]	EGFR protein remaining, EGFR L858R/T790M double mutant [2]	IC50 (EGFR WT) [µM]	IC50 (EGFR L858R/T790M) [nM]	IC50 (EGFR L858R/T790M/C797S) [nM]
Cc1ncsc1-c1ccc([C@H](C)NC(=O)[C@@H]2C[C@@H](O)CN2C(=O)[C@@H](NC(=O)CN2CCN(CCCC#Cc3cccc4c3C(=O)N(C(C(=O)Nc3nccs3)c3cc(F)ccc3O)C4)CC2)C(C)(C)C)cc1 (stereo partly drawn) [Example 80, (2S,4R)-1-((2S)-2-(2-(4-(5-(2-(1-(5-fluoro-2-hydroxyphenyl)-2-oxo-2-(thiazol-2-ylamino)ethyl)-3-oxoisoindolin-4-yl)pent-4-yn-1-yl)piperazin-1-yl)acetamido)-3,3-dimethylbutanoyl)-4-hydroxy-N—((S)-1-(4-(4-methylthiazol-5-yl)phenyl)ethyl)pyrrolidine-2-carboxamide]	> 30	13	C (>80% EGFR protein remaining after 72 hours of incubation with the test compound at a concentration of 300 nM)	C (>80% EGFR protein remaining after 72 hours of incubation with the test compound at a concentration of 300 nM)	4.7	4700	2200
COC1CCN(c2nccc(Nc3cc4c(cn3)nc(COCCOCC(=O)N[C@H](C(=O)N3C[C@@H](O)C[C@@H]3C(=O)N[C@@H](C)c3ccc(-c5scnc5C)cc3)C(C)(C)C)n4C(C)C)n2)CC1 [compound 77]	> 30	12	–	C (>80% EGFR protein remaining after 72 hours of incubation with the test compound at a concentration of 300 nM)	24	9100	9400
O=C1CCC(N2C(=O)c3ccc(NCCOCCOCC#Cc4cccc5c4C(=O)N(C(C(=O)Nc4nccs4)c4cc(F)ccc4O)C5)cc3C2=O)C(=O)N1 (centres unmarked) [compound 83]	> 30	> 30	–	C (>80% EGFR protein remaining after 72 hours of incubation with the test compound at a concentration of 300 nM)	3	2500	1200
Cc1ncsc1-c1ccc([C@H](C)NC(=O)[C@H]2C[C@H](O)CN2C(=O)[C@@H](NC(=O)COCCOCCOCC#Cc2cccc3c2C(=O)N(C(C(=O)Nc2nccs2)c2cc(F)ccc2O)C3)C(C)(C)C)cc1 (some centres unmarked) [compound 84]	> 30	5.3	–	C (>80% EGFR protein remaining after 72 hours of incubation with the test compound at a concentration of 300 nM)	1.8	680	270
COC1CCN(c2nccc(Nc3cc4c(cn3)nc(COCCOCCOCCOCCOCC(=O)N[C@H](C(=O)N3C[C@H](O)C[C@H]3C(=O)N[C@@H](C)c3ccc(-c5scnc5C)cc3)C(C)(C)C)n4C(C)C)n2)CC1 [Example 81, (2S,4R)-1-((S)-18-(tert-butyl)-1-(1-isopropyl-6-((2-(4-methoxypiperidin-1-yl)pyrimidin-4-yl)amino)-1H-imidazo[4,5-c]pyridin-2-yl)-16-oxo-2,5,8,11,14-pentaoxa-17-azanonadecan-19-oyl)-4-hydroxy-N—((S)-1-(4-(4-methylthiazol-5-yl)phenyl)ethyl)pyrrolidine-2-carboxamide]	> 30	7.1	–	C (>80% EGFR protein remaining after 72 hours of incubation with the test compound at a concentration of 300 nM)	2.4	8600	> 30000
COC1(CCN2CCN(c3ccc4c(c3)C(=O)N(C3CCC(=O)NC3=O)C4=O)CC2)CCN(c2nccc(Nc3cc4c(cn3)nc(C)n4C(C)C)n2)CC1 (centres unmarked) [Example 78, 2-(2,6-dioxopiperidin-3-yl)-5-(4-(2-(1-(4-((1-isopropyl-2-methyl-1H-imidazo[4,5-c]pyridin-6-yl)amino)pyrimidin-2-yl)-4-methoxypiperidin-4-yl)ethyl)piperazin-1-yl)isoindoline-1,3-dione]	25	5.6	C (>80% EGFR protein remaining after 72 hours of incubation with the test compound at a concentration of 300 nM)	C (>80% EGFR protein remaining after 72 hours of incubation with the test compound at a concentration of 300 nM)	5.7	250	25
O=C1CCC(N2C(=O)c3ccc(NCCOCCOCCOCC#Cc4cccc5c4C(=O)N(C(C(=O)Nc4nccs4)c4cc(F)ccc4O)C5)cc3C2=O)C(=O)N1 (centres unmarked) [Example 82, 2-(7-(3-(2-(2-(2-((2-(2,6-dioxopiperidin-3-yl)-1,3-dioxoisoindolin-5-yl)amino)ethoxy)ethoxy)ethoxy)prop-1-yn-1-yl)-1-oxoisoindolin-2-yl)-2-(5-fluoro-2-hydroxyphenyl)-N-(thiazol-2-yl)acetamide]	> 30	> 30	–	C (>80% EGFR protein remaining after 72 hours of incubation with the test compound at a concentration of 300 nM)	3.8	770	450
